According to patent US20240158446A1, “CYCLIC COMPOUND HAVING SELECTIVE INHIBITORY ACTION ON KRAS OVER HRAS AND NRAS” (CHUGAI SEIYAKU KABUSHIKI KAISHA, priority 2021, published 2024):

Tests used:
[1] = target: GDP-bound HRAS wild-type protein (Homo sapiens, UniProt P01112); experiment: Binding to HRAS by surface plasmon resonance (SPR), Single Cycle Kinetics; conditions: SPR KD ratio HRAS/KRAS, class symbols
[2] = system: human lung cancer strain NCI-H441;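 also: cell proliferation inhibition after four days measured by CellTiter-Glo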
[3] = target: GDP-bound KRAS wild-type protein (Homo sapiens, UniProt P01116); experiment: Binding to KRAS by surface plasmon resonance (SPR), Single Cycle Kinetics; conditions: SPR Single Cycle Kinetics, GDP-bound KRAS wild-type protein, 1:1 binding model; read-out: KRAS KD
[4] = target: GDP-bound NRAS wild-type protein (Homo sapiens, UniProt P01111); experiment: Binding to NRAS by surface plasmon resonance (SPR), Single Cycle Kinetics; conditions: SPR KD ratio NRAS/KRAS, class symbols
Chain of GDP-bound NRAS wild-type protein (P01111 whole entry): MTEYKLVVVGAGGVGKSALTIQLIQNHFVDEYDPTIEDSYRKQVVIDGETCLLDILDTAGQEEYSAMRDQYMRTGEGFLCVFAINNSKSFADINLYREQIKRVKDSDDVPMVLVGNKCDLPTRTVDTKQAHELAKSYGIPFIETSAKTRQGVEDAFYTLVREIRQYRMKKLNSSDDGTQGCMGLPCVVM

Chain of GDP-bound HRAS wild-type protein (P01112 whole entry): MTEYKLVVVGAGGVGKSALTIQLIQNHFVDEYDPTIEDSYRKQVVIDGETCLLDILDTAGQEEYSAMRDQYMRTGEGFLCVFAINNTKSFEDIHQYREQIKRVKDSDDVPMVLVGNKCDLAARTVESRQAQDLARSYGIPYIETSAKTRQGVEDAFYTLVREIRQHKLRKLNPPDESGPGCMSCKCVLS
Chain of GDP-bound KRAS wild-type protein (P01116 whole entry): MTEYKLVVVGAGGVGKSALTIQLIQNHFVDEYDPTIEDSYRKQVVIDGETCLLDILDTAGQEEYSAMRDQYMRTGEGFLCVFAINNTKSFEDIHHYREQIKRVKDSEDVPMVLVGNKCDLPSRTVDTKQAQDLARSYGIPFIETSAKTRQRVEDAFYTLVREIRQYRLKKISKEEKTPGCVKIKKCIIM

| SMILES | HRAS/KRAS (ratio of KD value with respect to GDP-bound HRAS wild-type protein to KD value with respect to KRAS) [1] | IC50 [2] [nM] | Kd [3] [nM] | NRAS/KRAS (ratio of KD value with respect to GDP-bound NRAS wild-type protein to KD value with respect to KRAS) [4] |
| --- | --- | --- | --- | --- |
| CCC(CC)[C@H]1C(=O)N(C)[C@H](C(=O)N(C)C)CC(=O)N(C)[C@@H](COC)C(=O)N[C@@H]([C@@H](C)CC)C(=O)N(C2CC2)CC(=O)N(C)[C@H]2C/C=C\CCN(C2=O)[C@@H](Cc2ccc(C)cc2)C(=O)N(C)CC(=O)N[C@@H](CCc2cc(F)c(C(F)(F)F)c(F)c2)C(=O)N2C[C@H](OC(C)C)C[C@H]2C(=O)NC2(CC(C)(C)C2)C(=O)N1C [PP2572] | A (a compound having 10 or more and less than 20 is denoted as A) | 82.7 | 1.2 | A (a compound having 10 or more and less than 20 is denoted as A) |
| CCO[C@@H]1C[C@H]2C(=O)NC3(CC(C)(C)C3)C(=O)N(C)[C@@H](C(CC)CC)C(=O)N(C)[C@H](C(=O)N3CCCCC3)CC(=O)N(C)[C@@H](COC)C(=O)N[C@@H]([C@@H](C)CC)C(=O)N(C)CC(=O)N(C)[C@H]3C/C=C\CCN(C3=O)[C@@H](Cc3ccc(C(F)(F)F)cc3)C(=O)N(C)CC(=O)N[C@@H](CCc3cc(F)c(C(F)(F)F)c(F)c3)C(=O)N2C1 [PP2606] | AA (a compound having 20 or more is denoted as AA) | 68.7 | 0.81 | AA (a compound having 20 or more is denoted as AA) |
| CCC(CC)[C@H]1C(=O)N(C)[C@H](C(=O)N2CCCCC2)CC(=O)N(C)[C@@H](COC)C(=O)N[C@@H]([C@@H](C)CC)C(=O)N(C)CC(=O)N(C)[C@H]2C/C=C\CCN(C2=O)[C@@H](Cc2ccc(C(F)(F)F)cc2)C(=O)N(C)CC(=O)N[C@@H](CCc2cc(F)c(C(F)(F)F)c(F)c2)C(=O)N2C[C@H](OC(C)C)C[C@H]2C(=O)NC2(CC(C)(C)C2)C(=O)N1C [PP2608] | A (a compound having 10 or more and less than 20 is denoted as A) | 53 | 1.4 | AA (a compound having 20 or more is denoted as AA) |
| CCO[C@@H]1C[C@H]2C(=O)NC3(CC(C)(C)C3)C(=O)N(C)[C@@H](C(CC)CC)C(=O)N(C)[C@H](C(=O)N3CCCCC3)CC(=O)N(C)[C@@H](COC)C(=O)N[C@@H]([C@@H](C)CC)C(=O)N(C)CC(=O)N(C)[C@H]3C/C=C\CCN(C3=O)[C@@H](Cc3ccc(C(F)(F)F)cc3)C(=O)N(C)CC(=O)N[C@@H](CCc3ccc(Cl)c(Cl)c3)C(=O)N2C1 [PP2610] | A (a compound having 10 or more and less than 20 is denoted as A) | 126 | 1.3 | AA (a compound having 20 or more is denoted as AA) |
| CCC(CC)[C@H]1C(=O)N(C)[C@H](C(=O)N2CCCCC2)CC(=O)N(C)[C@@H](COC)C(=O)N[C@@H]([C@@H](C)CC)C(=O)N(C)CC(=O)N(C)[C@H]2C/C=C\CCN(C2=O)[C@@H](Cc2ccc(C(F)(F)F)cc2)C(=O)N(C)CC(=O)N[C@@H](CCc2ccc(Cl)c(Cl)c2)C(=O)N2C[C@H](OC(C)C)C[C@H]2C(=O)NC2(CC(C)(C)C2)C(=O)N1C [PP2612] | A (a compound having 10 or more and less than 20 is denoted as A) | 199 | 2.4 | AA (a compound having 20 or more is denoted as AA) |
| CCC[C@H]1C(=O)N[C@@H]([C@@H](C)CC)C(=O)N(C2CC2)CC(=O)N(C)[C@H]2C/C=C\CCN(C2=O)[C@@H](Cc2ccc(C)cc2)C(=O)N(C)CC(=O)N[C@@H](CCc2cc(F)c(C(F)(F)F)c(F)c2)C(=O)N2C[C@H](OC3CCC3)C[C@H]2C(=O)NC2(CC(C)(C)C2)C(=O)N(C)[C@@H](C2CCCC2)C(=O)N(C)[C@H](C(=O)N(C)C)CC(=O)N1C [PP2614] | A (a compound having 10 or more and less than 20 is denoted as A) | 12.1 | 0.27 | A (a compound having 10 or more and less than 20 is denoted as A) |
| CCC(CC)[C@H]1C(=O)N(C)[C@H](C(=O)N(C)C)CC(=O)N(C)[C@@H](COC)C(=O)N[C@@H]([C@@H](C)CC)C(=O)N(C2CC2)CC(=O)N(C)[C@H]2C/C=C\CCN(C2=O)[C@@H](CC2CCC(F)(F)CC2)C(=O)N(C)CC(=O)N[C@@H](CCc2cc(F)c(C(F)(F)F)c(F)c2)C(=O)N2C[C@H](OC3CCC3)C[C@H]2C(=O)NC2(CC(C)(C)C2)C(=O)N1C [PP2615] | A (a compound having 10 or more and less than 20 is denoted as A) | 88.7 | 2 | A (a compound having 10 or more and less than 20 is denoted as A) |
| CCC[C@H]1C(=O)N[C@@H]([C@@H](C)CC)C(=O)N(C2CC2)CC(=O)N(C)[C@H]2C/C=C\CCN(C2=O)[C@@H](Cc2ccc(C)cc2)C(=O)N(C)CC(=O)N[C@@H](CCc2ccc(Cl)c(Cl)c2)C(=O)N2C[C@H](OC3CCC3)C[C@H]2C(=O)NC2(CC(C)(C)C2)C(=O)N(C)[C@@H](C2CCCC2)C(=O)N(C)[C@H](C(=O)N(C)C)CC(=O)N1C [PP2616] | A (a compound having 10 or more and less than 20 is denoted as A) | 66.4 | 0.8 | A (a compound having 10 or more and less than 20 is denoted as A) |
| CC[C@H](C)[C@@H]1NC(=O)[C@H](COC)N(C)C(=O)C[C@@H](C(=O)N(C)C)N(C)C(=O)[C@H](C2CCCC2)N(C)C(=O)C2(CC(C)(C)C2)NC(=O)[C@@H]2C[C@@H](OC3CCC3)CN2C(=O)[C@H](CCc2cc(F)c(C(F)(F)F)c(F)c2)NC(=O)CN(C)C(=O)[C@H](CC2CCCCC2)N2CC/C=C\C[C@@H](C2=O)N(C)C(=O)CN(C2CC2)C1=O [PP2618] | A (a compound having 10 or more and less than 20 is denoted as A) | 69.5 | 1.4 | A (a compound having 10 or more and less than 20 is denoted as A) |
| CCC(CC)[C@H]1C(=O)N(C)[C@H](C(=O)N(C)C)CC(=O)N(C)[C@@H](COC)C(=O)N[C@@H]([C@@H](C)CC)C(=O)N(C2CC2)CC(=O)N(C)[C@H]2C/C=C\CCN(C2=O)[C@@H](Cc2ccc(C)cc2)C(=O)N(C)CC(=O)N[C@@H](CCc2cc(F)c(C(F)(F)F)c(F)c2)C(=O)N2C[C@H](OC3CCCC3)C[C@H]2C(=O)NC2(CC(C)(C)C2)C(=O)N1C [PP2619] | A (a compound having 10 or more and less than 20 is denoted as A) | 132 | 1.2 | AA (a compound having 20 or more is denoted as AA) |
| CC[C@H](C)[C@@H]1NC(=O)[C@H](COC)N(C)C(=O)C[C@@H](C(=O)N(C)C)N(C)C(=O)[C@H](C2CCCC2)N(C)C(=O)C2(CC(C)(C)C2)NC(=O)[C@@H]2C[C@@H](OC3CCC3)CN2C(=O)[C@H](CCc2cc(F)c(C(F)(F)F)c(F)c2)NC(=O)CN(C)C(=O)[C@H](CC2CCC(F)(F)CC2)N2CC/C=C\C[C@@H](C2=O)N(C)C(=O)CN(C2CC2)C1=O [PP2622] | B (a compound having 3 or more and less than 10 is denoted as B) | 43.8 | 0.53 | A (a compound having 10 or more and less than 20 is denoted as A) |
| CC[C@H](C)[C@@H]1NC(=O)[C@H](COC)N(C)C(=O)C[C@@H](C(=O)N(C)C)N(C)C(=O)[C@H](C2CCCC2)N(C)C(=O)C2(CC(C)(C)C2)NC(=O)[C@@H]2C[C@@H](OC3CCC3)CN2C(=O)[C@H](CCc2ccc(Cl)c(Cl)c2)NC(=O)CN(C)C(=O)[C@H](CC2CCC(F)(F)CC2)N2CC/C=C\C[C@@H](C2=O)N(C)C(=O)CN(C2CC2)C1=O [PP2624] | A (a compound having 10 or more and less than 20 is denoted as A) | 174 | 1.3 | A (a compound having 10 or more and less than 20 is denoted as A) |
| CCC(CC)[C@H]1C(=O)N(C)[C@H](C(=O)N(C)C)CC(=O)N(C)[C@@H](COC)C(=O)N[C@@H]([C@@H](C)CC)C(=O)N(C2CC2)CC(=O)N(C)[C@H]2C/C=C\CCN(C2=O)[C@@H](CC2CCC(F)(F)CC2)C(=O)N(C)CC(=O)N[C@@H](CCc2cc(F)c(C(F)(F)F)c(F)c2)C(=O)N2C[C@H](OC3CCCC3)C[C@H]2C(=O)NC2(CC(C)(C)C2)C(=O)N1C [PP2627] | A (a compound having 10 or more and less than 20 is denoted as A) | 95.2 | 2.6 | A (a compound having 10 or more and less than 20 is denoted as A) |
